The results in this text go back to patent publication US7041639B2, “Depsipeptide and congeners thereof for use as immunosuppressants” (XCYTE Therapies, Inc., priority 1999, dated 2006).

In experiment [1] the test system is activation markers on CD4 cells. The experiment in a line: Activation marker assays by flow cytometry. Type of experiment: cell-based, human. The text has this: The effect of FR901228 on the induction of various activation markers on CD4 cells is studied. In this regard, cells are labeled with one or more of the following antibodies: anti-human CD4 Ab (Immunotech, Fullerton, Calif.), FITC-coupled anti-human CD11a Ab (Pharmingen), FITC-coupled anti-human CD26 Ab (Pharmingen), FITC-coupled anti-human CD49d Ab (Coulter), FITC-coupled anti-human CD54 Ab (Pharmingen and Becton Dickinson), FITC-coupled anti-human CD95 Ab (Pharmingen), FITC-coupled anti-human CD134 Ab (Pharmingen), FITC-coupled anti-human CD25 Ab (Becton Dickinson, Fullerton, Calif.), FITC-coupled anti-human CD69 Ab (Becton Dickinson), FITC- or PE-coupled anti-human CD154 Ab (Becton Dickinson), or FITC- or PE- coupled IgG1 isotype control Ab. Cells, 2×10^5 are labeled for 20 minutes at 4° C. with 2 μl of each antibody in a final volume of 30 μl, washed and resuspended in 1% parformaldehyde (Sigma, St. Louis, Mo.). […] In contrast, CD69 induction is not affected by 100 ng/ml FR901228 (FIG. 5C).

Experiment [2] deals with IL-2 production by activated CD4 cells. The experiment in a line: IL-2 ELISA of supernatants. The settings on record: ELISA after 24 h of 3×28 bead stimulation of purified CD4 cells; FIG. 6. It is filed as cell-based, human. As to the method:
Cells are prepared as described above. Supernatants from cells stimulated 24 h are subjected to an IL-2 or TNF-α enzyme linked immunosorbant assay (ELISA) according to the manufacturer's instructions (Biosource International, Sunnyvale, Calif.).
To study the mechanism behind FR901228 inhibition of CD4 cell proliferation, IL-2 and TNF-α production by activated CD4 cells was analyzed. […] The reason for this difference is currently unknown.
A general note: In an ELISA, binding on a coated surface is turned into a signal by an enzyme label.

Experiment [3] relates to activated T-cells (peripheral blood lymphocytes). Description: Proliferation inhibition assay, CFDA-SE staining. Type of experiment: cell-based, human. Particulars: added at time 0 or 24, 72, 120 hours post-stimulation with 3×28 beads; day 6; FIG. 7. As to the method: Peripheral blood lymphocytes are prepared as described above, stimulated with 3×28 beads and stained with carboxyfluorescein diacetate succinimidyl ester (CFDA-SE) at day 6 post stimulation. Cell stimulation was carried out as indicated above and the cells were washed twice with PBS and resuspended in media and incubated with CFDA-SE (Molecular Probes, OR). After about 10 minutes of staining, the cells are washed with media and FPS and dye incorporation was measured. FR901228 was added at various time points post-stimulation, at time 0 or at 24, 72, and 120 hours post-stimulation. FIG. 7 depicts flow data generated by CFDA-SE staining. The y-axis sets forth mean fluoresence intensity, which relates to the inverse of cell growth.

Experiment [4] has as its system CD154 on CD4 cells. The experiment in a line: CD154 expression on CD4 cells with or without IL-2. Type of experiment: cell-based, human. Particulars: 20 ng/ml added day three; 3×28 beads and/or 20 units/ml IL-2; read day 4; FIG. 9. As for the experimental part: The effect of FR901228 on the induction of the CD154 activation marker on CD4 cells is studied. In this regard, cells are labeled with FITC-coupled anti-human CD4 Ab (Immunotech, Fullerton, Calif.), PE-coupled anti-human CD154 Ab (Becton Dickinson, Fullerton, Calif.), or FITC- or PE-coupled IgG1 isotype control Ab. Cells, 2×10^5 are labeled for 20 minutes at 4° C. with 2 μl of each antibody in a final volume of 30 μl, washed and resuspended in 1% parformaldehyde (Sigma, St. Louis, Mo.). The cells are stimulated for four days in the presence of 3×28 beads and/or 20 units/ml IL-2 or an anti-IL-2 antibody at day three, FR901228 is added to the culture at a concentration of 20 ng/ml. On day 4, mean fluorescence intensity is measured by flow cytometry.

Experiment [5] concerns CD154 promoter in Jurkat T-cells. Description: GFP reporter under control of the CD154 promoter. It is filed as cell-based. Particulars: 24 hours 3×28 beads; 0, 10, 50, 100 ng/ml; FIG. 11. As for the experimental part:
In this experiment Jurkat T-cells were stabily transfected with a vector construct (p-EGFP1, Clonetech) wherein the nucleotide sequence encoding green fluorescent protein was operably linked to the CD154 promoter cloned from Jurkat cells. Following selection of cells containing the vector of interest, the cells were subjected to stimulation for 24 hours with 3×28 beads in the presence of varying concentrations (0 to 100 ng/ml) of FR901228. Fluorescence was then detected using flow cytometry.

Experiment [6] relates to CD154 transcript. The experiment in a line: RT-PCR of the CD154 transcript. Type of experiment: cell-based. The settings on record: 18 hours of stimulation with 3×28 beads; data not shown. As to the method:
In separate experiments, RT-PCR of the CD154 transcript was carried out after 18 hours of stimulation with 3×28 beads and various amounts of FR901228. […] Experiments were also conducted using CD4 cells incubated with anti-sense constructs of c-myc. After stimulation by 3×28 beads for twenty-four hours, the anti-sense c-myc construct reduced CD154 expression as measured by flow cytometry by about 50% as compared to controls including:no construct, sense or transfection with a scrambled c-myc construct (data not shown). Accordingly, FR901228 and like compounds may target the activity of c-myc and its induction of CD154 as one mechanism of immune suppression.

Experiment [7] deals with NODSCID mice. Description: Diabetes onset in NODSCID mice given NOD spleen cells. It is filed as in vivo. Particulars: 0.5 mg/kg i.p. every other day. As to the method: (§1) FR901228 was dissolved in 10% DMSO in PBS and were administered i.p. to NOD or NODSCID mice every other day. Controls contained only the DMSO excipient (10% DMSO in PBS). […] 0.5 mg/kg of FR901228 was administered at each treatment to twenty animals (ten NOD animals and ten NODSCID animals). Every two weeks the number of mice in each treatment group that had become diabetic was evaluated by measuring blood glucose levels using a glucometer at bi-weekly intervals. A reading of more than 200 mg/dl of blood glucose on two consecutive observations was considered indicative of frank diabetes.

Experiment [8] deals with NOD mice. Description: Diabetes onset in NOD mice. Particulars: 0.5 mg/kg i.p. every other day; ten NOD animals. Type of experiment: in vivo. As for the experimental part: as §1
Where [9] appears, read: 3×28 beads, 20 ng/ml, FIGS. 8A–8B.

Each structure is given as a SMILES string. “And” between values parts separate entries of the source, which are not always exact repeats. Equal entries are not always repeated.

In the case of `C/C=C1\NC(=O)[C@H]2CSSCC/C=C/[C@H](CC(=O)N[C@H](C(C)C)C(=O)N2)OC(=O)[C@H](C(C)C)NC1=O` [FR901228], the CD69 induction entry in experiment [1] (100 ng/ml, FIG. 5C) is “not affected”. Further, in experiment [1] (setting [9]), the “CD69 induction or activation induced downregulation of CD62L” value is “no significant affect”; the “induction of CD25, CD134, CD137w, CD154, CD11a, CD54, and CD95 on CD4 T-cells” value was “inhibition”. For the same compound, the “lowest concentration at which CD154 expression is strongly suppressed” value in experiment [1] (after 3×28 bead stimulation, FIG. 5A) amounted to 10 ng/mL. In addition, the “lowest concentration at which CD25 expression is strongly suppressed” value in experiment [1] (after 3×28 bead stimulation, FIG. 5B) was found to be 10 ng/mL. Besides, the “lowest concentration that markedly inhibits IL-2 production” value in experiment [2] turned out to be 10 ng/mL. Further, the “cell growth of activated T-cells (CFDA-SE mean fluorescence intensity)” value in experiment [3] is “inhibited”. For the same compound, the “CD154 expression in presence or absence of IL-2” value in experiment [4] is on record as “suppression of CD154 expression”. Further, the “induction of GFP expression under CD154 promoter” value in experiment [5] is “only cells having 0 ng/ml of FR901228 showed induction of GFP expression”. In experiment [6], the “levels of CD154 expression by RT-PCR” value is on record as “reduced levels of CD154 expression with increasing amounts”. Also, the “delay of onset of frank diabetes versus excipient only” value in experiment [7] (frank diabetes = more than 200 mg/dl on two consecutive observations) is “at least two”. Further, in experiment [7] (NODSCID, head 'age (wks.)' 6, one line per mouse), the “blood glucose / status of single mouse, column 6 (5/9)” value was determined as 261 mg/dL. Also, the “blood glucose / status of single mouse, (5/23)” value in experiment [7] (NODSCID, head 'age (wks.)' 8, one line per mouse, 0.5 mg/kg) was 547 mg/dL and 527 mg/dL. In addition, the “blood glucose / status of single mouse, (6/6)” value in experiment [7] (NODSCID, head 'age (wks.)' 10, one line per mouse, 0.5 mg/kg) is 482 mg/dL and 526 mg/dL and 343 mg/dL and 317 mg/dL and 299 mg/dL and 412 mg/dL and 441 mg/dL and 494 mg/dL and 399 mg/dL and 285 mg/dL. The “blood glucose / status of single mouse, (6/20)” value in experiment [7] (NODSCID, head 'age (wks.)' 12, one line per mouse, 0.5 mg/kg) is “High (2×) and 566 mg/dl and 596 mg/dl and 568 mg/dl and 539 mg/dl and 338 mg/dl and 240 mg/dl and Dead and 576 mg/dl”. In addition, the “blood glucose / status of single mouse, 7/4” value in experiment [7] (NODSCID, head 'age (wks.)' 14, one line per mouse, 0.5 mg/kg) was 536 mg/dl and 402 mg/dl and Dead (5×) and 494 mg/dl and 558 mg/dl. For the same compound, the “blood glucose / status of single mouse, column 16 (7/18)” value in experiment [7] (NODSCID, head 'age (wks.)' 16, one line per mouse) worked out at 571 mg/dL. Further, in experiment [7] (NODSCID, head 'age (wks.)' 18, one line per mouse), the “blood glucose / status of single mouse, column 18 (8/1)” value is on record as “Dead”. Further, the “development of frank diabetes during the 18 week study” value in experiment [8] is listed as “no NOD mouse treated with the compound developed frank diabetes”.
